# In patent US11759464B2, “Gonadotropin-releasing hormone antagonist dosing regimens for treating uterine fibroids and reducing menstrual blood loss” (ObsEva S.A., priority 2017, dated 2023):
# Key:
# Format in all cases: in vivo
# [1] = system: healthy human female subjects; experiment: biomarkers of bone mineral density (creatinine-normalized deoxypyridinoline); settings: 100 mg/day + 1.0 mg/day E2 and 0.5 mg/day norethindrone acetate, urine (FIG. 25)
# Protocol: (§1) To assess the effects of compound (II) on serum β17-estradiol concentration and menstrual blood loss, a total of 75 healthy human female subjects were divided into five treatment groups, as described in Table 1, below. The subjects were screened for a period of four weeks prior to the commencement of treatment with compound (II). At the conclusion of the four week screening period, the subjects in each treatment arm were administered an equivalent dosage of norethindrone acetate of 5 mg×3 times daily. This 15 mg/day dosage was administered for a total of 11 days so as to allow synchronization of menses among the subjects. The subjects were subsequently not treated for the ensuing 4 days. Following this withdrawal period, the subjects were treated with compound (II), with or without add-back therapy, once daily for 42 days according to the dosages set forth in Table 1. Following the 42-day treatment cycle, the subjects were further monitored for a period of 13 days. In addition to assessing the ability of compound (II) to modulate serum E2 and progesterone levels and to curtail menstrual bleeding, compound (II) was evaluated for its effects on biomarkers of bone mineral density (FIGS. 25-29). These markers include creatinine-normalized deoxypyridinoline (DPD), which is excreted in larger quantities when bone resorption is increased.
# [2] = system: healthy human female subjects; experiment: menstrual bleeding pattern (amenorrhea) during treatment; settings: for Amenorrhea (no bleeding), subjects / Amenorrhea + spotting only, subjects: last 4 weeks of treatment
# Protocol: as §1, with “To assess” for “In addition to assessing”, “effects” for “ability”, “on” for “to modulate serum E2 and progesterone levels and to curtail”, “blood loss, the volume of menstrual blood lost by each subject” for “bleeding, compound (II)”, “evaluated over the course of the entirety of the study, including the 11-day screening period, 4-day withdrawal period, 42-treatment period, and 13-day post-treatment evaluation period. Assessment of menstrual blood loss was conducted using an electronic diary method, as subjects recorded daily whether their bleeding” for “evaluated”, “each day was heavy, moderate, or light spotting.” for “its effects on biomarkers of bone mineral density (FIGS. 25-29). These markers include creatinine-normalized deoxypyridinoline (DPD), which is excreted in larger quantities when bone resorption is increased.”
# [3] = system: healthy human female subjects; experiment: serum β17-estradiol (E2) concentration during 42-day once-daily treatment
# Protocol: To assess the effects of compound (II) on serum β17-estradiol concentration and menstrual blood loss, a total of 75 healthy human female subjects were divided into five treatment groups, as described in Table 1, below. The subjects were screened for a period of four weeks prior to the commencement of treatment with compound (II). At the conclusion of the four week screening period, the subjects in each treatment arm were administered an equivalent dosage of norethindrone acetate of 5 mg×3 times daily. This 15 mg/day dosage was administered for a total of 11 days so as to allow synchronization of menses among the subjects. The subjects were subsequently not treated for the ensuing 4 days. Following this withdrawal period, the subjects were treated with compound (II), with or without add-back therapy, once daily for 42 days according to the dosages set forth in Table 1. Following the 42-day treatment cycle, the subjects were further monitored for a period of 13 days. As used herein, the add-back regime of 1.0 mg/day β17-estradiol and 0.5 mg/day norethindrone acetate is referred to as the “high-dose” or […] add-back dosage, while the add-back regime of 0.5 mg/day β17-estradiol and 0.1 mg/day norethindrone acetate was referred to as the “low-dose” or “LD” add-back dosage. This labeling convention is used throughout this Example and is additionally referred to in the Figures.
# [4] = 100 mg daily + add-back E2/NETA 0.5 mg/0.1 mg
# [5] = 100 mg daily + add-back E2/NETA 0.5 mg/0.1 mg, listed as compound (II)
# [6] = 100 mg daily + add-back E2/NETA 1 mg/0.5 mg
# [7] = 100 mg daily + add-back E2/NETA 1 mg/0.5 mg, listed as compound (II)
# [8] = 100 mg daily, no add-back, listed as compound (II)
# [9] = 200 mg daily + add-back E2/NETA 1 mg/0.5 mg
# [10] = 200 mg daily + add-back E2/NETA 1 mg/0.5 mg, listed as compound (II)
# [11] = 200 mg daily, no add-back, listed as compound (II)
structure (smiles),measurement,setting,value
"COc1cc(F)c(-n2c(=O)[nH]c3csc(C(=O)O)c3c2=O)cc1OCc1c(OC)ccc(F)c1F [Compound (II), choline 3-[2-fluoro-5-(2,3-difluoro-6-methoxybenzyloxy)-4-methoxyphenyl]-2,4-dioxo-1,2,3,4-tetrahydrothieno [3,4d]pyrimidine-5-carboxylate]","creatinine-normalized deoxypyridinoline (DPD), comparison among arms",[1],smallest increase
same,"Amenorrhea (no bleeding), subjects",[2]; [4],21%
same,"Amenorrhea + spotting only, subjects",[2]; [4],57%
same,"Amenorrhea (no bleeding), subjects",[2]; [5],at least 21%
same,"Amenorrhea + spotting only, subjects",[2]; [5],at least 57%
same,"Amenorrhea (no bleeding), subjects",[2]; [6],53%
same,"Amenorrhea + spotting only, subjects",[2]; [6],93%
same,"Amenorrhea (no bleeding), subjects",[2]; [7],at least 53%
same,"Amenorrhea + spotting only, subjects",[2]; [7],at least 93%
same,"Amenorrhea (no bleeding), subjects","[2]; 100 mg daily, no add-back",86%
same,"Amenorrhea + spotting only, subjects","[2]; 100 mg daily, no add-back",93%
same,"Amenorrhea (no bleeding), subjects",[2]; [8],at least 86%
same,"Amenorrhea + spotting only, subjects",[2]; [8],at least 93%
same,"Amenorrhea (no bleeding), subjects",[2]; [9],33%
same,"Amenorrhea + spotting only, subjects",[2]; [9],60%
same,"Amenorrhea (no bleeding), subjects",[2]; [10],at least 33%
same,"Amenorrhea + spotting only, subjects",[2]; [10],at least 60%
same,"Amenorrhea (no bleeding), subjects","[2]; 200 mg daily, no add-back",87%
same,"Amenorrhea + spotting only, subjects","[2]; 200 mg daily, no add-back",100%
same,"Amenorrhea (no bleeding), subjects",[2]; [11],at least 87%
same,"Amenorrhea + spotting only, subjects",[2]; [11],100%
same,effect on menstrual bleeding,[2]; 100 or 200 mg/day with or without add-back (FIGS. 20-24),capable of inducing sustained amenorrhea
same,"Median E2 level, E2 Week 1","[3]; 100 mg daily + add-back E2/NETA 0.5 mg/0.1 mg, n = 14, after week 1",25 pg/mL
same,"Median E2 level, E2 Week 6","[3]; 100 mg daily + add-back E2/NETA 0.5 mg/0.1 mg, n = 14, after week 6",40 pg/mL
same,"Median E2 level, E2 Week 1","[3]; 100 mg daily + add-back E2/NETA 1 mg/0.5 mg, n = 15, after week 1",35 pg/mL
same,"Median E2 level, E2 Week 6","[3]; 100 mg daily + add-back E2/NETA 1 mg/0.5 mg, n = 15, after week 6",34 pg/mL
same,"Median E2 level, E2 Week 1","[3]; 100 mg daily, no add-back, n = 14, after week 1",12 pg/mL
same,"Median E2 level, E2 Week 6","[3]; 100 mg daily, no add-back, n = 14, after week 6",18 pg/mL
same,"E2 levels, majority of subjects","[3]; 100 mg/day without add-back, each of days 8, 15 and 22",less than 20 μg/ml
same,"Median E2 level, E2 Week 1","[3]; 200 mg daily + add-back E2/NETA 1 mg/0.5 mg, n = 15, after week 1",27 pg/mL
same,"Median E2 level, E2 Week 6","[3]; 200 mg daily + add-back E2/NETA 1 mg/0.5 mg, n = 15, after week 6",25 pg/mL
same,"Median E2 level, E2 Week 1","[3]; 200 mg daily, no add-back, n = 14, after week 1",5 pg/mL
same,"Median E2 level, E2 Week 6","[3]; 200 mg daily, no add-back, n = 14, after week 6",3 pg/mL
same,"serum E2 concentrations, all subjects","[3]; 200 mg/day stand-alone arm, each of days 8, 15, 22, 29 and 36",less than 20 μg/ml
same,effect on median serum E2 levels,"[3]; 100 or 200 mg/day, 42-day treatment cycle (FIG. 1)",reduced in a dose-dependent manner
